Consider three compounds from paper PMC9065678, “BI 1015550 is a PDE4B Inhibitor and a Clinical Drug Candidate for the Oral Treatment of Idiopathic Pulmonary Fibrosis” (Frontiers in Pharmacology, 2022).

One data set addresses T1, PDE4A (Homo sapiens, UniProt P27815).
T1 construct: PDE4A (NG_029594, AA 156–886); made in house; host or cells: SF9 insect cells (baculovirus, Bac-To-Bac, pFastbac)
The data set is described as follows: Recombinant PDE activity, scintillation proximity assay: PDE4A. The format is biochemical. The note with it: substrate [3H]cAMP, means from n independent experiments. How it is done:
(§1) For the preparation of human recombinant PDEs of interest, the Bac-To-Bac baculoviral expression system from Invitrogen (Carlsbad, CA, United States) was used according to the instruction manual. […] The plasmids were transformed into DH10Bac bacteria, SF9 insect cells were transfected with the bacmid DNA, and the resulting baculoviruses were stored and used for further rounds of infections. For protein production, SF9 cells were infected until a cytopathic effect was visible (after about 72 h), the SF9 cells were harvested and broken up by 3 freeze/thaw cycles, and by shearing 10 times through a 0.1 mm cannula using a syringe. […] The Phosphodiesterase Scintillation Proximity Assays (TRKQ7090 for [^3H]cAMP, GE Healthcare Europe GmbH, Chalfont St Giles, United Kingdom, and TRKQ7100 for [^3H]cGMP, Perkin Elmer, Waltham, MA, United States) were performed essentially according to the instruction manual. […] Assay solutions containing recombinant baculoviral-expressed PDE (to give an activity of 5.000–20.000 cpm corresponding to 5–20% of total activity added), 50 mmol/L Tris/HCl pH 7.5, 8.3 mmol/L MgCl2, 1.7 mmol/L EGTA, and 10 µL radiolabeled substrate (0.05 µCi in H2O) were incubated for 1 h at 30°C (final volume 100 μL).
For orientation: In a scintillation proximity assay essentially only radioactivity close to the scintillant gives light.

Another data set deals with T2, PDE4B (Homo sapiens, UniProt Q07343).
T2 construct: PDE4B NG_029038: AA 152–484; made in house; host or cells: SF9 insect cells (baculovirus, Bac-To-Bac, pFastbac)
The experiment in a line: Recombinant PDE activity, scintillation proximity assay: PDE4B. The format is biochemical. To be noted: human recombinant active site fragment, substrate [3H]cAMP, means from n independent experiments; read-out: IC50 PDE4B2. How it is done:
as §1

A further data set has as its target T3, PDE4C (Homo sapiens, UniProt Q08493).
T3 construct: made in house; host or cells: SF9 insect cells (baculovirus, Bac-To-Bac, pFastbac)
The experiment in a line: Recombinant PDE activity, scintillation proximity assay: PDE4C. The format is biochemical. To be noted: substrate [3H]cAMP, means from n independent experiments, read-out: IC50 PDE4C2. How it is done: as §1

Another data set has as its target T4, PDE4D (Homo sapiens, UniProt Q08499).
T4 construct: PDE4D NG_027957, AA 79–438; made in house; host or cells: SF9 insect cells (baculovirus, Bac-To-Bac, pFastbac)
The experiment in a line: Recombinant PDE activity, scintillation proximity assay: PDE4D. The format is biochemical. To be noted: human recombinant active site fragment, substrate [3H]cAMP, means from n independent experiments; read-out: IC50 PDE4D2. How it is done:
as §1

The test system of the next data set is α-SMA protein expression. The data set is described as follows: α-SMA protein expression of TGF-β-stimulated IPF lung fibroblasts (Western blot replacement assay). The format is cell-based, human. To be noted: alone, up to the highest concentration of 100 nmol/L. How it is done: (§2) Fibroblasts from donors with IPF (IPF-LF) (Asterand, Detroit, MI, United States) were grown in fibroblast basal medium (CC-3131, Lonza Walkersville, Inc., Walkersville, MD, United States) supplemented with FGM-2 SingleQuot Kit Supplements and Growth Factors (CC-4126, Lonza). Cells were grown in a humidified incubator at 37°C and 5% CO2. All assays were performed at passage 7 or 8. For assay set-up, cells were seeded in fibroblast growth medium plus supplements in assay-relevant densities. For TGF-β-stimulated assays, cells were seeded at 4,500 cells per well in 96-well plates. Proliferation assays were performed in 96-well plates at an initial seeding cell density on day 0 of 2,000 cells per well. After 24-h, the cell culture medium was changed to starvation medium (fibroblast basal medium without supplements). After a 24-h starvation period, cells were pre-incubated for 30 min with different concentrations of BI 1015550 plus/minus different concentrations of nintedanib and/or 1 nmol/L PGE2 and stimulated with the assay-relevant stimulus for the indicated time in the presence of the compound.
For determination of α-SMA protein expression, IPF-LF cells were stimulated with TGF-β (4 ng/mL) for 48 h. Lysates were assayed in a Western blot replacement assay (MSD). In short, lysates were pipetted onto high binding plates (MSD) and were sequentially incubated with a mouse anti-human α-SMA antibody (Sigma Aldrich) and an anti-mouse sulfo-tag antibody (MSD). For analysis, an MSD sector imager was used.
For orientation: A western blot detects proteins with antibodies after separation by electrophoresis.

Another data set concerns IPF-LF cells. The experiment in a line: bFGF plus IL-1β-induced proliferation of IPF lung fibroblasts (bromodeoxyuridine assay). The format is cell-based. To be noted: Homo sapiens, Fibroblast, read-out: Inhibition of proliferation. How it is done: as §2
IPF-LF cells were stimulated with bFGF (20 ng/mL) plus IL-1β (30 pg/mL). After 72 h of stimulation, 10-times concentrated bromodeoxyuridine was added and the cells were incubated for another 18 h (final concentration bromodeoxyuridine 10 μmol/L). Cell proliferation was assessed by bromodeoxyuridine assay (Roche, Mannheim, Germany) according to the instruction manual.

Data set [1] has as its system LPS-induced neutrophil influx into the BALF. The experiment in a line: LPS-induced neutrophil influx into the BALF of Suncus murinus. The format is in vivo. The note with it: Neutrophil, oral, 30 min before nebulized LPS, read-out: ED50 LPS-induced BALF neutrophils. An excerpt:
(§3) Compared with other animal species used to study emesis induction by PDE4 inhibitors, like ferrets, dogs, minipigs, or monkeys, Suncus murinus allows the testing of a sufficient number of animals to provide a high statistical power. […] Male Suncus murinus (weight 50–55 g) from Boehringer Ingelheim (Biberach an der Riss, Germany) or male Wistar rats (200–250 g, Charles River), eight animals per group, were used. […] For this purpose, animals in the positive control and treatment groups were put into a circular Plexiglas chamber with 16 pie-like compartments for one animal each, and were consecutively exposed to nebulized LPS for 30 min. The LPS solution used for nebulization contained 1 mg/mL LPS in phosphate-buffered saline (PBS). Nebulization was performed with the commercially available PARI Master® nebulizer with a PARI Master® LL adapter (Pari GmbH, Starnberg, Germany). 4 h after LPS exposure, the animals were anesthetized and euthanized by cervical dislocation. After sacrifice, the trachea was cannulated and bronchoalveolar lavage was performed by instilling and re-aspirating two-times 1 mL (Suncus murinus) or 5 mL (rat) lavage buffer (PBS +2% bovine serum albumin). BALF volumes were recorded manually. Determination of neutrophil numbers in BALF was performed using a blood hemacytometer (Sysmex XT-1800i, Kobe, Japan).

The subject of data set [2] is LPS-induced lung neutrophil influx. The experiment in a line: LPS-induced lung neutrophil influx in male Wistar rats. The format is in vivo, rat. The note with it: Rattus norvegicus, Neutrophil, oral, data not shown.
Excerpt: as §3

A further data set concerns Suncus murinus. The experiment in a line: Determination of emesis in male Suncus murinus. The format is in vivo. How it is done:
All animals (50–55 g) were dosed orally by gavage immediately before transfer to whole-body plethysmography boxes. The volume of application was set to 10 mL/kg body weight. For assessment of the emetic events, animals were placed in the whole-body plethysmography boxes without any access to feed or water for 3 h. The whole-body plethysmography system used to detect emetic events consisted of five major components: 1) plethysmography boxes for mice (Buxco®, PLY 3211-F, Data Sciences International, New Brighton, MN, United States), 2) a pressure transducer with an amplifier, 3) a bias flow regulator, 4) a PC-based system to receive and process the amplified signals, and 5) a PC-based data acquisition system (NOTOCORD-hem™, Instem, Stone, United Kingdom) to process signals, as well as in-house-developed software to detect and identify changes in breathing pattern. Retching and vomiting induced characteristic changes in the breathing pattern of animals and these were recorded by whole-body plethysmography and translated for NOTOCORD recording. A number of preset definitions (computer-based criteria) characteristic for emetic events were determined. Peaks that met the set internal computer-based criteria and exceeded the threshold of more than 600 mV were labeled as emetic events by the system on a standard basis.

T1 sequence (P27815 156-886): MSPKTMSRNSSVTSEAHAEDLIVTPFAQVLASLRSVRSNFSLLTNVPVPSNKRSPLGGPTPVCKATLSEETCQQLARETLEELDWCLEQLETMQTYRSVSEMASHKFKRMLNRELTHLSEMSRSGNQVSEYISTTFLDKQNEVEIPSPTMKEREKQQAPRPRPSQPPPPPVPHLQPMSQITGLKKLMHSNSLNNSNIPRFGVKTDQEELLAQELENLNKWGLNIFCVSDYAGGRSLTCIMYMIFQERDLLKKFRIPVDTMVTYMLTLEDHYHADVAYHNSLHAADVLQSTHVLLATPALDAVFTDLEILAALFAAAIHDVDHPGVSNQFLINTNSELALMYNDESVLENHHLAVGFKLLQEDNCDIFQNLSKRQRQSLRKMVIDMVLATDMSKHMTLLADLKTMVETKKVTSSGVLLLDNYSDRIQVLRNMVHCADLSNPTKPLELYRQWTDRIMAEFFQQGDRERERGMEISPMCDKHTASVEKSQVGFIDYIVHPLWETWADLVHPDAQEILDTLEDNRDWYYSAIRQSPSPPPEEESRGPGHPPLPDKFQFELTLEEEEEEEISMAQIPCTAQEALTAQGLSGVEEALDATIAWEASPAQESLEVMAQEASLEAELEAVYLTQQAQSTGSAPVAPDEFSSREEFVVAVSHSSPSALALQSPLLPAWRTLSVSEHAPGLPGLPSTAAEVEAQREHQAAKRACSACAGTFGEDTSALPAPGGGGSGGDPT
T4 sequence (Q08499 381-740): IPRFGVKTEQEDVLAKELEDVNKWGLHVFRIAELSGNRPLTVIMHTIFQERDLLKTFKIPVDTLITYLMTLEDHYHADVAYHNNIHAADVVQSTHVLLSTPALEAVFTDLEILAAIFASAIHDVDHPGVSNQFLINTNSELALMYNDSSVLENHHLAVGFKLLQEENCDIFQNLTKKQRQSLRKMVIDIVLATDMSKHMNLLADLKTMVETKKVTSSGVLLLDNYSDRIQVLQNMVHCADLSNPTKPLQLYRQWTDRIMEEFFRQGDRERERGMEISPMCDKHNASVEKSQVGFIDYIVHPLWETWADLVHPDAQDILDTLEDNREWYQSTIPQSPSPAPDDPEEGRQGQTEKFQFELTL
T3 sequence (Q08493 107-712): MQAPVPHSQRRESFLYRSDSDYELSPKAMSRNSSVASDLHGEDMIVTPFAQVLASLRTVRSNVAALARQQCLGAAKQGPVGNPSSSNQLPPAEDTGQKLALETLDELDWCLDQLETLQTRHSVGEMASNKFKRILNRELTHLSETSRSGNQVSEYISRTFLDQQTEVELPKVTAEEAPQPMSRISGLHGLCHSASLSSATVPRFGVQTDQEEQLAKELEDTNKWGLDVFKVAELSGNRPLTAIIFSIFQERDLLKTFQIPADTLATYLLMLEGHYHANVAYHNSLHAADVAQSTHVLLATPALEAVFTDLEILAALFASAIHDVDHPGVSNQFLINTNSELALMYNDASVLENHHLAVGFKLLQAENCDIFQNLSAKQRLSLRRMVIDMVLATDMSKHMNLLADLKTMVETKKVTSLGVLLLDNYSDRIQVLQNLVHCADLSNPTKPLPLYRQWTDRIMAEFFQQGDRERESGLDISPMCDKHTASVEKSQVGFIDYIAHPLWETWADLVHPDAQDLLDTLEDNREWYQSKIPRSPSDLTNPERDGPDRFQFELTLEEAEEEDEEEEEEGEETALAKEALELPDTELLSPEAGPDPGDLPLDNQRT
T2 sequence (Q07343 324-656): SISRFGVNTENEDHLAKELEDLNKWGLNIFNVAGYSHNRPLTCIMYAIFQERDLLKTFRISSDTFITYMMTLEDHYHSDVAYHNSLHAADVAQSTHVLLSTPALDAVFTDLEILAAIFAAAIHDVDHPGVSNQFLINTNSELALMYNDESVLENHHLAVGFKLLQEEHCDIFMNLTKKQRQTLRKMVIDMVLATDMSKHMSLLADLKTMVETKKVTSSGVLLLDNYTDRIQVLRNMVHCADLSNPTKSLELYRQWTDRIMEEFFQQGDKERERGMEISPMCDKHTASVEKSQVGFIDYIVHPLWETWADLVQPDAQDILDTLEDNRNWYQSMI

Broadly, the IC50 is the midpoint of a concentration-inhibition curve. Turning to `O=C(Nc1c(Cl)c[n+]([O-])cc1Cl)c1ccc(OC(F)F)c(OCC2CC2)c1` [Roflu-N-Ox, roflumilast N-oxide, reference compound], the IC50 is 2.8 nM on PDE4A, 1.4 nM on PDE4B, 15 nM at PDE4C and 1.4 nM at PDE4D.

For `COC(=O)c1ccc2c(c1)NC(=O)/C2=C(\Nc1ccc(N(C)C(=O)CN2CCN(C)CC2)cc1)c1ccccc1` [Nintedanib, nintedanib, reference compound], in the data set with α-SMA protein expression, the “Inhibitory effect on α-SMA protein expression” value was “no inhibitory effect”. For the same compound, the inhibition at 0.1 µM in the data set with IPF-LF cells was 15%.

In general, ED50 refers to the dose at which the effect has come halfway, by size or by number of responders. As to `O=C(Nc1c(Cl)cncc1Cl)c1ccc(OC(F)F)c(OCC2CC2)c1` [Roflumilast, roflumilast, reference compound], the 50% effective dose (ED50) in data set [1] and in data set [2] was 1 mg/kg throughout. The Animals showing emesis in the data set on Suncus murinus (10 × ED50 oral (BI 1015550 6 mg/kg, roflumilast 10 mg/kg)) was 10/24. Besides, in the data set on Suncus murinus (oral (BI 1015550 6 mg/kg, roflumilast 10 mg/kg), 24 animals), the “% of vomiting animals, emesis at 10 × ED50” value is reported as 42%.
